Counter-ions that a name gives are not always drawn.
Legend:
MOLM-13 cells = experiment: Inhibition of cell growth in MOLM-13 cells (Alamar blue, 72 h); assay type: cell-based; settings: Homo sapiens, 72 h incubation
Method: (§1) Studies were carried out to test the effect of compounds on the inhibition of cell growth in MOLM-13 and MV4-11 cells.
(§2) The following protocol was used:
(§3) (a) Cells were seeded in 96-well plates at cell densities of 2500/well (MOLM-13) and 10,000/well (MV4-11). Cells were then incubated overnight prior to addition of compound or vehicle control.
(§4) (b) Test compounds were prepared from 10 mM DMSO stocks to give a final concentration range of 10 μM, 3 μM, 1 μM, 0.3 μM, […], 0.03 μM, 0.01 μM, […] vehicle control. The DMSO content was constant at 0.1%.
(§5) (c) Test compounds were incubated with the cells for 72 h at 37° C. 5% CO2 in a humidified atmosphere.
(§6) (d) Alamar blue 10% (v/v) was then added and incubated for a further 4 h, and fluorescent product detected using the BMG FLUOstar plate reader.
(§7) (e) Media only background values were subtracted and the data analysed using a 4-parameter logistic equation in GraphPad Prism.

MV4-11 cells = experiment: Inhibition of cell growth in MV4-11 cells (Alamar blue, 72 h); assay type: cell-based; settings: Homo sapiens, 72 h incubation
Method: as §1, §2, §3, §4, §5, §6, §7

Chk-1 kinase = Chk-1 kinase (Homo sapiens (Human), UniProt O14757); experiment: Chk-1 kinase inhibiting activity (33P-ATP radiometric filter assay, CHKtide substrate); assay type: biochemical; settings: recombinant full length GST-tagged CHK-1 0.5 nM, CHKtide 20 μM, 120 minutes at room temperature; read-out: IC50 against Chk-1 kinase
Chain of Chk-1 kinase (O14757 whole entry): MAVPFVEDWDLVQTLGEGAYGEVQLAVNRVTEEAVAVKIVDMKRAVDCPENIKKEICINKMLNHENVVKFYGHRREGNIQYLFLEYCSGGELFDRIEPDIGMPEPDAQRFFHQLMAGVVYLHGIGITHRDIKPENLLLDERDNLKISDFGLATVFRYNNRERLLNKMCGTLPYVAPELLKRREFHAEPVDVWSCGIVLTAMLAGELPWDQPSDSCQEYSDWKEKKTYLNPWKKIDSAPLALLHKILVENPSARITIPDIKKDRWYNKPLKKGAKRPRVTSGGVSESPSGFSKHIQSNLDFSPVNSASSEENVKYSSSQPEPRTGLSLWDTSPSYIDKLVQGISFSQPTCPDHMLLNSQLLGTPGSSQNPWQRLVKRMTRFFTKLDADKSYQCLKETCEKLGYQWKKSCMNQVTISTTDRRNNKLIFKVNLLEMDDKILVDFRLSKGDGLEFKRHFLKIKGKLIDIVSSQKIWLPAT
Method: The compounds of the invention were tested for activity against Chk-1 kinase using the materials and protocols set out below.
Base Reaction buffer: 20 mM Hepes (pH 7.5), 10 mM MgCl2, 1 mM EGTA, 0.02% Brij35, 0.02 mg/ml BSA, 0.1 mM Na3VO4, 2 mM DTT, 1% DMSO
Required cofactors are added individually to each kinase reaction
(i) Prepare indicated substrate in freshly prepared Base Reaction Buffer
(ii) Deliver any required cofactors to the substrate solution above
(iii) Deliver indicated kinase into the substrate solution and gently mix
(iv) Deliver compounds in DMSO into the kinase reaction mixture
(v) Deliver ^33P-ATP (specific activity 0.01 μCi/μl final) into the reaction mixture to initiate the reaction.
(vi) Incubate kinase reaction for 120 minutes at room temperature
(vii) Reactions are spotted onto P81 ion exchange paper (Whatman #3698-915)
(viii) Wash filters extensively in 0.1% phosphoric acid.
(ix) Dry filters and measure counts in scintillation counter
Recombinant full length construct, N-terminal GST tagged, purified from insect cells.
No special measures were taken to activate this kinase.
Final concentration in assay=0.5 nM
Peptide sequence: [[…]]
Final concentration in assay=20 μM
No additional cofactors are added to the reaction mixture
From the results obtained by following the above protocol, the IC50 values against Chk-1 kinase of a number of the compounds of the Examples were determined and these are shown in Table 3.

| IC50 (MV4-11 cells) [nM] | IC50 (Chk-1 kinase) [nM] | SMILES | IC50 (MOLM-13 cells) [nM] |
| --- | --- | --- | --- |
| 56 | 0.69 | COc1cc(CCNCCN2CCN(C)CC2)c(Cl)cc1NC(=O)Nc1cnc(C#N)cn1 [Example 9, 1-(5-Chloro-2-methoxy-4-{2-[2-(4-methyl-piperazin-1-yl)-ethylamino]-ethyl}-phenyl)-3-(5-cyano-pyrazin-2-yl)-urea hydrochloride] | 29 |
| 135 | 0.21 | CC(C)Oc1cc(CCNCC(=O)N2CCOCC2)c(Cl)cc1NC(=O)Nc1cnc(C#N)cn1 [Example 27, 1-{5-Chloro-2-isopropoxy-4-[2-(2-morpholin-4-yl-2-oxo-ethylamino)-ethyl]-phenyl}-3-(5-cyano-pyrazin-2-yl)-urea hydrochloride] |  |
| 202 | 0.4 | COc1cc(CCNC[C@H]2CN(C(=O)C3CC3)CCO2)c(Cl)cc1NC(=O)Nc1cnc(C#N)cn1 [Example 14, 1-(5-Chloro-4-{2-[((S)-4-cyclopropanecarbonyl-morpholin-2-ylmethyl)-amino]-ethyl}-2-methoxy-phenyl)-3-(5-cyano-pyrazin-2-yl)-urea hydrochloride] |  |
| 390 | 0.48 | COc1cc(CCN[C@@H](C)C(=O)N2CCOCC2)c(Cl)cc1NC(=O)Nc1cnc(C#N)cn1 [Example 28, 1-{5-Chloro-2-methoxy-4-[2-((S)-1-methyl-2-morpholin-4-yl-2-oxo-ethylamino)-ethyl]-phenyl}-3-(5-cyano-pyrazin-2-yl)-urea hydrochloride] |  |
| 740 | 30 | N#Cc1cnc(NC(=O)Nc2ccc(CCNCC3CCCCC3)c(Cl)c2)cn1 [Example 12, 1-{3-Chloro-4-[2-(cyclo-hexylmethyl-amino)-ethyl]-phenyl}-3-(5-cyano-pyrazin-2-yl)-urea hydrochloride] | 1600 |
|  | 0.61 | COc1cc(OCCNCCN2CCOCC2)c(Cl)cc1NC(=O)Nc1cnc(C#N)cn1 [Example 25, 1-{5-Chloro-2-methoxy-4-[2-(2-morpholin-4-yl-ethylamino)-ethoxy]-phenyl}-3-(5-cyano-pyrazin-2-yl)-urea hydrochloride] |  |
|  | 2.9 | CC(C)Oc1cc(CCN[C@@H](C)C(=O)N2CCOCC2)ccc1NC(=O)Nc1cnc(C#N)cn1 [Example 30, 1-(5-Cyano-pyrazin-2-yl)-3-{2-isopropoxy-4-[2-((S)-1-methyl-2-morpholin-4-yl-2-oxo-ethylamino)-ethyl]-phenyl}-urea hydrochloride] |  |
| 175 | 0.52 | COc1cc(CCN[C@@H](C)CN2CCOCC2)c(Cl)cc1NC(=O)Nc1cnc(C#N)cn1 [Example 18, 1-{5-Chloro-2-methoxy-4-[2-((S)-1-methyl-2-morpholin-4-yl-ethylamino)-ethyl]-phenyl}-3-(5-cyano-pyrazin-2-yl)-urea hydrochloride] |  |
|  | 76 | COc1cc(CCNC(=O)CN2CCOCC2)c(Cl)cc1NC(=O)Nc1cnc(C#N)cn1 [Example 16, N-(2-{2-Chloro-4-[3-(5-cyano-pyrazin-2-yl)-ureido]-5-methoxy-phenyl}-ethyl)-2-morpholin-4-yl-acetamide hydrochloride] |  |
| 4790 | 19 | COc1cc(CCN[C@@H](C)CN2CCOCC2)ccc1NC(=O)Nc1cnc(C#N)cn1 [Example 23, 1-(5-Cyano-pyrazin-2-yl)-3-{2-methoxy-4-[2-((S)-1-methyl-2-morpholin-4-yl-ethylamino)-ethyl]-phenyl}-urea hydrochloride] |  |
|  | 7.1 | CC(C)Oc1cc(CCNC(=O)[C@H]2CNCCO2)c(Cl)cc1NC(=O)Nc1cnc(C#N)cn1 [Example 20, (R)-Morpholine-2-carboxylic acid (2-{2-chloro-4-[3-(5-cyano-pyrazin-2-yl)-ureido]-5-isopropoxy-phenyl}-ethyl)-amide hydrochloride] |  |
|  | 0.27 | COc1cc(CCN[C@H](C)C2CCN(S(C)(=O)=O)CC2)c(Cl)cc1NC(=O)Nc1cnc(C#N)cn1 [Example 13, 1-(5-Chloro-4-{2-[(R)-1-(1-methanesulfonyl-piperidin-4-yl)-ethylamino]-ethyl}-2-methoxy-phenyl)-3-(5-cyano-pyrazin-2-yl)-urea hydrochloride] |  |
| 3760 | 10 | COc1cc(CCNC[C@H]2CN(C(=O)C3CC3)CCO2)ccc1NC(=O)Nc1cnc(C#N)cn1 [Example 21, 1-(5-Cyano-pyrazin-2-yl)-3-(4-{2-[((S)-4-cyclopropanecarbonyl-morpholin-2-ylmethyl)-amino]-ethyl}-2-methoxy-phenyl)-urea hydrochloride] |  |
| 800 | 0.58 | COc1cc(CCNCC(=O)N2CCN(C)CC2)c(Cl)cc1NC(=O)Nc1cnc(C#N)cn1 [Example 26, 1-(5-Chloro-2-methoxy-4-{2-[2-(4-methyl-piperazin-1-yl)-2-oxo-ethylamino]-ethyl}-phenyl)-3-(5-cyano-pyrazin-2-yl)-urea hydrochloride] |  |
|  | 1.1 | COc1cc(CCN[C@H](C)CN2CCOCC2)c(Cl)cc1NC(=O)Nc1cnc(C#N)cn1 [Example 24, 1-{5-Chloro-2-methoxy-4-[2-((R)-1-methyl-2-morpholin-4-yl-ethylamino)-ethyl]-phenyl}-3-(5-cyano-pyrazin-2-yl)-urea hydrochloride] |  |
| 481 | 1.9 | COc1cc(CCNCC(=O)N2CCOCC2)c(Cl)cc1NC(=O)Nc1cnc(C#N)cn1 [Example 19, 1-{5-Chloro-2-methoxy-4-[2-(2-morpholin-4-yl-2-oxo-ethylamino)-ethyl]-phenyl}-3-(5-cyano-pyrazin-2-yl)-urea hydrochloride] |  |

| SMILES | IC50 (MV4-11 cells) [nM] | IC50 (Chk-1 kinase) [nM] | IC50 (MOLM-13 cells) [nM] |
| --- | --- | --- | --- |
| CC(C)Oc1cc(CCNC(=O)CN2CCN(C)CC2)c(Cl)cc1NC(=O)Nc1cnc(C#N)cn1 [Example 22, N-(2-{2-Chloro-4-[3-(5-cyano-pyrazin-2-yl)-ureido]-5-isopropoxy-phenyl}-ethyl)-2-(4-methyl-piperazin-1-yl)-acetamide hydrochloride] | 519 | 8.2 |  |
| COc1cc(CCNC[C@@H]2CNCCO2)c(Cl)cc1NC(=O)Nc1cnc(C#N)cn1 [Example 3, 1-(5-Chloro-2-methoxy-4-{2-[((R)-1-morpholin-2-ylmethyl)-amino]-ethyl}-phenyl)-3-(5-cyano-pyrazin-2-yl)-urea hydrochloride] | 173 | 0.14 | 81 |
| COc1cc(CCNC[C@H]2CNCCO2)c(Cl)cc1NC(=O)Nc1cnc(C#N)cn1 [Example 4, 1-(5-Chloro-2-methoxy-4-{2-[((S)-1-morpholin-2-ylmethyl)-amino]-ethyl}-phenyl)-3-(5-cyano-pyrazin-2-yl)-urea hydrochloride] | 111 | 0.05 | 49 |
| COc1cc(CCNC(=O)[C@H]2CNCCO2)c(Cl)cc1NC(=O)Nc1cnc(C#N)cn1 [Example 15, (R)-Morpholine-2-carboxylic acid (2-{2-chloro-4-[3-(5-cyano-pyrazin-2-yl)-ureido]-5-methoxy-phenyl}-ethyl)-amide hydrochloride] |  | 20 |  |
| COc1cc(CCNC(=O)CN2CCN(C)CC2)c(Cl)cc1NC(=O)Nc1cnc(C#N)cn1 [Example 17, N-(2-{2-Chloro-4-[3-(5-cyano-pyrazin-2-yl)-ureido]-5-methoxy-phenyl}-ethyl)-2-(4-methyl-piperazin-1-yl)-acetamide hydrochloride] |  | 13 |  |

— US9630931B2, “Pharmaceutically active pyrazine derivatives” (Sentinel Oncology Limited, priority 2011, dated 2017)
